According to PubChem BioAssay (NCI):
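Five concentrations, 48 hours, 96-well plates. TGI denotes the concentration required for complete inhibition of growth.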

Experiments:
Assay in all cases: inhibition of tumour cell growth, NCI panel, 48 h
[1] = system: MDA-MB-435
[2] = system: SNB-75 CNS
[3] = system: TK-10 renal
[4] = system: EKVX NSCLC
[5] = system: OVCAR-3 ovarian
[6] = system: SF-539 CNS
[7] = system: SK-MEL-5 melanoma
[8] = system: HT29 colon
[9] = system: SR leukemia
[10] = system: SK-OV-3 ovarian
[11] = system: SK-MEL-28 melanoma
[12] = system: U251 CNS
[13] = system: MDA-MB-231 breast
[14] = system: 786-0 renal
[15] = system: UACC-62 melanoma
[16] = system: KM12 colon
[17] = system: RPMI-8226 leukemia
[18] = system: SW-620 colon
[19] = system: NCI-H226 lung
[20] = system: OVCAR-4 ovarian

SMILES	TGI [1] [µM]	TGI [2] [µM]	TGI [3] [µM]	TGI [4] [µM]	TGI [5] [µM]	TGI [6] [µM]	TGI [7] [µM]	TGI [8] [µM]	TGI [9] [µM]	TGI [10] [µM]	TGI [11] [µM]	TGI [12] [µM]	TGI [13] [µM]	TGI [14] [µM]	TGI [15] [µM]	TGI [16] [µM]	TGI [17] [µM]	TGI [18] [µM]	TGI [19] [µM]	TGI [20] [µM]
O=[N+]([O-])c1ccc2sc(/C=N/c3ccccn3)cc2c1	> 100	> 100	> 100	> 100	> 100	> 100	> 100	> 100	89.4	> 100	> 100	> 100	> 100	> 100	> 100	> 100	88.9	> 100		
CO[C@@]12C[C@@H](C)[C@]34O[C@H]3C[C@]3(C)O[C@]43CC1=C(C)C(=O)O2	> 100		> 100	> 100	> 100	> 100	> 100	> 100		> 100	> 100	> 100	> 100	> 100	> 100	> 100	> 100	> 100	> 100	> 100
CCOC(=O)/C(C(=S)NCc1ccccc1)=C(/N)N1CCCC1	> 100		> 100	> 100	> 100	> 100	> 100	> 100	> 100		> 100	> 100	> 100	> 100	> 100	> 100	> 100	> 100	> 100	> 100
COC(=O)c1cc(O)c(O)c(O)c1-c1c(O)c(O)c(O)c(SC[C@H](NC(=O)OCc2ccccc2)C(=O)OCc2ccccc2)c1C(=O)OC	44	68.1	> 100	50.8	> 100	73		86.5		> 100	> 100	33.5	39	49.6	64.8	> 100	81.7	62.8	48.2	89.9
CCOC(=O)CSC1NC(C(=O)OC)CC1OC (stereo not drawn)	> 100	> 100	> 100	> 100	> 100		> 100	> 100		> 100	> 100	> 100	> 100	> 100	> 100	> 100	> 100	> 100		> 100
CS(=O)(=O)OCCCSCCSCCCOS(C)(=O)=O	> 100	> 100	> 100	> 100	> 100	> 100	> 100	> 100	> 100	> 100	> 100	> 100	> 100	> 100	> 100	> 100		> 100		> 100
Cc1cc(S(=O)(=O)Nc2nnc3ccccn23)c(S)cc1Cl	> 100		> 100	> 100	> 100	> 100	> 100	> 100	> 100		> 100	> 100	> 100	> 100	> 100	> 100	> 100	> 100		> 100
Cc1ccc(S(=O)(=O)N/N=C2\CCC3(O)CC2(C)CCC2C3CC2(C)C)cc1 (stereo not drawn)	> 100		75.8	> 100	> 100	> 100	> 100	> 100	> 100	> 100	> 100	> 100	> 100	> 100	> 100	> 100	> 100	> 100	89.5	> 100
COC(=O)c1c(O)ccc2c1c1c(n2Cc2ccccc2OC)C(=O)c2ccccc2C1=O	27.7		65	45	23	47.1	25.8	21.3	3.18	53.7	36.1	24.4	54.9	24		23.4	10.5	29.8	39.3	26.9
Nc1ncc(C=O)c(NCC2(CO)CCC2)n1	> 100	> 100	73.8		> 100	> 100	86.9	> 100	> 100			> 100	> 100	> 100	81.2	> 100	> 100	> 100	> 100	> 100
CO[C@]12S[C@@H]3CCCC[C@@]31C(C)(C)C(=O)N2c1ccccc1	> 100	> 100	> 100	> 100	38.5	28.6	43.3	> 100	> 100	76.8	> 100	> 100	> 100	> 100	> 100	> 100	73	> 100		
CCc1c(CNC2=NCCN2)c(CC)c(CNC2=NCCN2)c(CC)c1CNC1=NCCN1	> 100	> 100	> 100	> 100	> 100	> 100	> 100	> 100	> 100	> 100	> 100	> 100		> 100	> 100	> 100	> 100	> 100	> 100	> 100
COc1c(I)c(OC)c2c(c1I)O[C@@H]1OCC[C@H]21		82.9	> 100	> 100	91.7	> 100	27.2	> 100	45.2	> 100	97	> 100		> 100	> 100	82.6	> 100	> 100	> 100	84.6
